Test results taken from US20060088598A1, “Intravenous composition, process for producing the same and preparation thereof” (LTT Bio-Pharama Co., Ltd., priority 2002, published 2006).

Experiments:
Type in all cases: physicochemical
[1] = Encapsulation ratio of agents in PLGA microparticles (HPLC of supernatant and deposit); details: FIG. 1; microparticles of Example 1
Method: 100 mg of PLGA (Wako) or PLA (Wako), 10 mg of egg yolk lecithin, and 0.5 mg of an agent were dissolved in 1 ml of dichloromethane. While cooling in an ice bath, the obtained solution was slowly added dropwise, through a 27G needle, to 25 ml of distilled water, which was being stirred with Polytron PT-2100 (Kinematica) or an ultrasonic generator (TOMY). After the stirring was continued for 10 minutes, the mixture was further stirred with a stirrer at room temperature for 2 hours. Thereafter, dichloromethane was removed. The obtained microparticles were concentrated by ultra filtration (Amicon, Centriprep YM-10) and were then purified by gel filtration (Pharmacia, PD-10). The thus obtained particles were centrifuged at 13,000 g for 10 minutes, and the agent contained in the supernatant and deposit was assayed by HPLC. HPLC analysis was carried out in a water/acetonitrile system for measuring the absorption at 210 nm or 240 nm using a C4 reverse phase column (Waters, Symmetry 300). With regard to agents, PGE1, and ASO06 produced by esterifying carboxylic acid and a hydroxyl group thereof, were used as prostanoids.

[2] = Remaining ratio of agent in PLGA microparticles after 1% SDS or 80% FBS, 37° C., 5 minutes; details: with addition of SDS, FIG. 4
Method: Each of the agents produced in Example 1 was suspended in 80% FBS (fetal bovine serum) or in a 1% SDS aqueous solution, and the suspension was incubated at 37° C. for 5 minutes. Thereafter, the resultant product was centrifuged at 13,000 g for 10 minutes, and the amount of the agent contained in the deposit was assayed by HPLC.

[3] = Releasing behavior after freeze-drying in 10% sucrose; details: freeze-dried in 10% sucrose, resuspended in 3% BSA-containing PBS; FIGS. 6 and 7
Method: (§1) 30 mg of PLGA (Wako) or PLA (Wako), 3 mg of egg yolk lecithin (Wako), and 1 mg of AS006 or BDP were dissolved in 1 ml of dichloromethane, and microparticles were then produced by the same method as described in Example 1. The obtained microparticles were suspended in distilled water, PBS, or 3% BSA-containing PBS. The suspension was allowed for a certain period of time, and was then centrifuged at 13,000 g for 10 minutes. Thereafter, AS006 or BDP contained in the deposit was assayed by HPLC.
A 10% stabilizer was added to the PLGA microparticle suspension produced in Example 2, and the suspension was then frozen with acetone/dry ice, followed by performing a freeze-drying treatment. The dried PLGA microparticles were dispersed in water again. Thereafter, the turbidity of the suspension was measured with a spectrophotometer, and the microparticle size thereof was measured with a dynamic light scattering photometer. In addition, the AS006-containing PLGA microparticles produced in Example 4 and the BDP-containing PLGA microparticles produced in Example 2 were freeze-dried in 10% sucrose, and the remaining amount of the agent and the releasing behavior were measured by the method described in Example 2.

[4] = Releasing behavior of agent from agent-encapsulated PLGA microparticles in suspension; details: 3% BSA-containing PBS at 37° C.; FIG. 3
Method: as §1

encapsulation ratio in PLGA microparticle [1] | agent remaining in PLGA [2] [%] | Compound | releasing behavior with vs without freeze-drying [3] | sustained-release behavior [4]
significantly increased | ≥ 80 | CCC(=O)OCC(=O)[C@@]1(OC(=O)CC)[C@@H](C)C[C@H]2[C@@H]3CCC4=CC(=O)C=C[C@]4(C)[C@@]3(F)[C@@H](O)C[C@@]21C [BDP, betamethazone dipropionate] | same releasing behavior regardless whether or not a freeze-drying treatment had been carried out | same sustained-release behavior as that of ASO06
significantly increased | – | CCCC(=O)O[C@]1(C(=O)COC(=O)CC)CC[C@H]2[C@@H]3CCC4=CC(=O)CC[C@]4(C)[C@H]3[C@@H](O)C[C@@]21C [HBP, hydrocortisone butyrate propionate] | – | –
almost no PGE1 could be encapsulated | – | CCCCC[C@H](O)/C=C/[C@H]1[C@H](O)CC(=O)[C@@H]1CCCCCCC(=O)O [PGE1, prostaglandin E1] | – | –

Compound | encapsulation ratio in PLGA microparticle [1] | agent remaining in PLGA [2] [%] | releasing behavior with vs without freeze-drying [3] | sustained-release behavior [4]
C[C@]12CCC(=O)C=C1CC[C@@H]1[C@@H]2[C@@H](O)C[C@@]2(C)[C@H]1CC[C@]2(O)C(=O)CO [hydrocortisone, Hydrocortisone] | almost neither hydrocortisone nor betamethazone could be encapsulated | – | – | –
